Columns and labels:
[1] = tested on: NPC Chinese Hamster Ovary (CHO) cells; assay: Relative lysosomal volume via LysoTracker, NPC CHO cells; format: cell-based; conditions: 1 mM, 72 hours, p<0.01 versus untreated NPC1-null
Excerpt: Relative lysosomal volume was quantified via LysoTracker.

[2] = tested on: downbeat nystagmus patients; assay: Case studies, downbeat nystagmus patients; format: in vivo, human; conditions: downbeat nystagmus Patient 1; 10 mg twice daily for four weeks
Excerpt: The patient was diagnosed with downbeat nystagmus: the patient was severely impaired by blurred vision (oscillopsia) due to the nystagmus, and experienced difficulties while reading and writing. The patient's visual acuity was: right 0.75, left 0.67, binocular 0.83, and the downbeat nystagmus was documented by video-oculography. […] The patient could partially suppress the nystagmus by visual fixation, as evaluated using a target center (dot presented in the center of a display for 30 seconds, FIG. 13A) and in complete darkness using goggles covered with special glasses for 45 seconds (FIG. 13B). The results (median of slow phase velocity, SPV) were as follows: Target Center-horizontal: −0.02°/s, vertical: 2.41°/s; Complete Darkness-horizontal: 0.05°/s, vertical: 3.27°/s (FIG. 13C).

[3] = tested on: downbeat nystagmus patients; assay: Case studies, downbeat nystagmus patients; format: in vivo, human; conditions: downbeat nystagmus Patient 2
[4] = tested on: restless leg syndrome patients; assay: Case studies, restless legs syndrome (IRLS score); format: in vivo, human
Excerpt: A widely reported rating scale known as the International Restless Leg Syndrome Study Group Rating Scale (“IRLS”) was developed by the International Restless Legs Syndrome Study Group (“IRLSSG”) (http://www.irlssg.org/) (Walters et al., Validation of the International Restless Legs Syndrome Study Group rating scale for restless legs syndrome. Sleep medicine. 2003 Apr. 1; 4(2):121-32). The IRLS is a 10-item scale with scores ranging from 0 (no symptoms) to 40. Scores >30 are considered very severe, severe (Score 21-30), moderate (scores 11-20) and ≤10, mild. Use of the scale is common for clinical assessment, research and therapeutic trials with RLS. In one embodiment, treatment with leucine, acetyl-leucine, or a pharmaceutically acceptable salt thereof as described herein decreases the subject's International Restless Leg Syndrome Study Group Rating Scale (“IRLS”) compared to a baseline. In one embodiment, the IRLS is reduced compared to baseline by at least 10%, at least 20%, at least 30%, at least 40%, or at least 50%. In one embodiment, the IRLS is reduced by at least 60%, at least 70%, at least 80%, at least 90%, or 100%.
The patient in this case study was a person showing proximal weakness of the so lower limb. […] Upon consultation, they reported no sensory symptoms but complained of a restless leg syndrome at night and during resting periods of the day, occurring over the course of the last two years. Pre-treatment with dopamine agonist were without symptom relief. Serum creatine kinase activity was only mildly elevated at up to 400 IU/L. The patient was evaluated using the RLS diagnostic index (RLS-DI) (see Walters et al., Sleep Med 2003; 4(2):121-132;). The patient's International Restless Legs Syndrome Rating Scale score (IRLS) was 36, and thus a severe RLS was diagnosed. […] Re-introduction of the treatment re-declined the score to 8 after 2 weeks. Continuation of treatment over more than 22 weeks stabilized the IRLS score at 8.
The patient in this case study was a person showing proximal weakness of the lower limb. […] Upon consultation, they reported no sensory symptoms but complained of a restless leg syndrome at night and during resting periods of the day, occurring over the course of the last eight years. […] Serum creatine kinase activity was mildly elevated at 300 IU/L. Iron measurements and all additional lab investigations were normal. The patient was evaluated using the RLS-DI and the patient's IRLS was 32, and thus a moderate to severe RLS was diagnosed. […] Continuation of treatment over more than 28 weeks stabilized the IRLS score at 8.
The patient in this case study was a person showing mild proximal weakness of the upper and lower limbs slowly progressive. The patient had been diagnosed (genetically confirmed) with McArdle myopathy about 16 years ago. Upon consultation, they reported no sensory symptoms but complained about a severe fatigue and reduced stamina. The patient further reported a restless leg syndrome at night and during resting periods of the day, occurring over the course of the last 12 years. […] Serum creatine kinase activity was mildly elevated at 200 IU/L; however, the patient had 5 episodes of rhabdomyolysis during the past 20 years. Repeated iron measurements and all additional lab investigations were normal. The patient was evaluated using the RLS-DI and the patient's IRLS was 34, and thus a severe RLS was diagnosed. […] Continuation of treatment over more than 30 weeks stabilized the IRLS score at 10. In addition, the patient's fatigue declined (Fatigue Severit Scale: 9 (minimum) to 63 (maximum)) from 53 to 28.

MSA-P patients [5] = assay: Case studies, multiple system atrophy Parkinson type (MSA-P) patients; format: in vivo, human; conditions: MSA-P Patient 3
Excerpt: Medication was stopped. […] The patient evaluated after one month on acetyl-DL-leucine. […] Episodes of mental confusion completely disappeared. The patient's cognitive structure seemed much clearer and straighter. […] The patient's spouse supported continuing the medication.

[6] = tested on: corticobasal syndrome patient; assay: Case study, corticobasal syndrome; format: in vivo, human
Experimental: Gait analysis was performed before treatment commenced.

MSA-P patients [7] = assay: Case studies, multiple system atrophy Parkinson type (MSA-P) patients; format: in vivo, human; conditions: MSA-P Patient 1; 100/25 mg 3×daily
[8] = tested on: frontotemporal dementia with parkinsonism patient; assay: Case study, frontotemporal dementia with parkinsonism; format: in vivo, human; conditions: frontotemporal dementia with parkinsonism patient; treatment with L-Dopa and Ropinirol
Excerpt: After approximately one month of acetyl-leucine treatment, medication was stopped and the patient was re-examined 13 days later.

[9] = tested on: progressive supranuclear palsy patients; assay: Case studies, progressive supranuclear palsy patients; format: in vivo, human
Experimental: After 27 days of acetyl-leucine treatment, medication was stopped and the patient was re-examined 60 days later. […] Gait analysis was performed before treatment commenced. […] Gait analysis was performed before treatment commenced. After 17 days of treatment, medication was stopped and the patient was re-examined 4 days later. […] Gait analysis was performed before treatment commenced. After three weeks of treatment, medication was stopped and the patient was re-examined.

[10] = tested on: Lewy Body dementia patient; assay: Case study, Lewy Body dementia; format: in vivo, human; conditions: Levodopa 100 mg 4× daily and Quetiapin 25 mg at night
Experimental: The patient started taking acetyl-leucine (3 g/day for one week; 5 g/day thereafter) and was evaluated after four weeks. […] Medication was reduced to 3 g/day, and the patient was instructed to stop medication about two weeks later.

ALS patients = assay: Case studies, amyotrophic lateral sclerosis (ALS) patients; format: in vivo, human; conditions: ALS Patient 1; medication started around the time of ALS diagnosis
Excerpt: The results were documented by video.

[11] = tested on: rat model of an acute unilateral labyrinthectomy; conditions: Zwergal et al. (2016); Gunther et al. (2015); cited from earlier work

For `CC(C)CC(N)C(=O)O` (racemic) [DL-leucine], the “Lysosomal volume (LysoTracker)” value [1] was “significantly reduced lysosomal volume”.
For `Nc1ccncc1` [4-aminopyridine, reference compound], the Clinical response [2] was “did not give rise to any benefit” and the Clinical response [3] was “did not benefit”.
For `CC(C)C[C@@H](N)C(=O)O` [D-leucine], the “Lysosomal volume (LysoTracker)” value [1] was “significantly reduced lysosomal volume”.
With `N[C@@H](Cc1ccc(O)c(O)c1)C(=O)O` [L-Dopa, reference compound] the “Symptom relief (pre-treatment)” value ([4]; RLS Patient 2) was “without sustained symptom relief”, the “Symptom relief (pre-treatment)” value ([4]; RLS Patient 3) was “without sustained symptom relief” and the Tolerability (MSA-P patients [5]) was “suspended due to side effects”. For the same molecule, the Clinical response [6] was “no improvement”, the Clinical response (MSA-P patients [7]) was “discreet Levodopa response” and the Clinical response [8] was “little improvement”. The Clinical response ([9]; PSP Patient 1) was “little improvement”, the Clinical response ([9]; PSP Patient 2) was “no levodopa response” and the Clinical response ([9]; PSP Patient 3) was “no levodopa response”. For the same molecule, the Clinical response ([9]; PSP Patient 4) was “slight levodopa response” and the Clinical response [10] was “improved the symptomatology”.
For `CC(C)C[C@H](N)C(=O)O` [L-leucine], the “Lysosomal volume (LysoTracker)” value [1] was “significantly reduced lysosomal volume”.
With `OCCOCCN1CCN(C2=Nc3ccccc3Sc3ccccc32)CC1` [Quetiapin, reference compound] the Clinical response [10] was “improved the symptomatology”.
With `Nc1nc2ccc(OC(F)(F)F)cc2s1` [Riluzol, reference compound] the Clinical symptomatology (ALS patients) was “clinical symptomatology remained unchanged”.
With `CCCN(CCC)CCc1cccc2c1CC(=O)N2` [Ropinirol, reference compound] the Clinical response [8] was “little improvement”.
For `CC(=O)N[C@H](CC(C)C)C(=O)O` [acetyl-D-leucine], the “Lysosomal volume (LysoTracker)” value [1] was “significantly reduced lysosomal volume”.
In the case of `CC(=O)N[C@@H](CC(C)C)C(=O)O` [acetyl-L-leucine], the “Lysosomal volume (LysoTracker)” value [1] is given as “significantly reduced lysosomal volume” and the “Effect on postural compensation” value [11] is given as “significant effect”.
With `CC(C)C[C@H](CN)CC(=O)O` [pregabaline, reference compound] the “Symptom relief (pre-treatment)” value ([4]; RLS Patient 2) was “without sustained symptom relief” and the “Symptom relief (pre-treatment)” value ([4]; RLS Patient 3) was “without sustained symptom relief”.

From US11793782B2, “Therapeutic agents for neurodegenerative diseases” (priority 2017, dated 2023)
